pIC50: −log10 of the molar value. The source made the active and inactive calls. No cut-off for these calls is given here.
Columns and labels:
A549 [1] = assay: Cytotoxicity against human A549 cells assessed as reduction in viability at 0.1 to 20 uM after 24 hrs by SRB assay; type: functional, cell-based
A549 [2] = assay: Cytotoxicity against human A549 cells assessed as reduction in viability at 0.1 to 20 uM after 48 hrs by SRB assay; type: functional, cell-based
A549 [3] = assay: Cytotoxicity against human A549 cells assessed as reduction in viability after 48 hrs by SRB assay; type: functional, cell-based; details: A549, 48 h
A549 [4] = assay: Induction of morphological changes in human A549 cells assessed as apoptotic body formation at 0.1 to 20 uM after 3 to 24 hrs by acridine orange staining based inverted phase contrast microscopic method; type: functional, cell-based
A549 [5] = assay: Induction of necrosis in human A549 cells assessed as increase in LDH activity at 0.1 to 5 uM after 24 hrs by absorption spectrophotometric method; type: cell-based; details: a549, 24 h
A549 [6] = assay: Induction of necrosis in human A549 cells assessed as increase in LDH activity at 10 uM after 24 hrs by absorption spectrophotometric method; type: cell-based; details: a549, 24 h
A549 [7] = assay: Induction of apoptosis in human A549 cells assessed as increase in Cleaved-PARP expression at 1 to 10 uM after 24 hrs by Western blot analysis; type: functional, cell-based
A549 [8] = assay: Induction of autophagy in human A549 cells assessed as accumulation of acidic vesicles at 0.05 to 20 uM after 24 hrs by acridine orange staining based fluorescence microscopic method; type: functional, cell-based
A549 [9] = assay: Induction of autophagy in human A549 cells assessed as increase in […] expression at 1 to 10 uM after 24 hrs by Western blot analysis; type: functional, cell-based
A549 [10] = assay: Inhibition of autophagy flux in human A549 assessed as increase in p62 expression at 1 to 10 uM after 24 hrs by Western blot analysis; type: functional, cell-based
A549 [11] = assay: Induction of autophagy in human A549 cells assessed decrease in p62 expression at 1 to 10 uM after 24 hrs by Western blot analysis; type: functional, cell-based
U-87 MG = assay: Induction of autophagy in human U87 cells transfected with GFP-fused LC3-II assessed as punctiform pattern of LC3-II at 1 to 10 uM after 24 hrs by laser scanning confocal microscopic method; type: functional, cell-based; details: U-87MG ATCC
A549 [12] = assay: Induction of autophagic flux in human A549 cells assessed as increase in LC3-II protein level at 10 uM after 24 hrs in presence of V-ATPase inhibitor bafilomycin-A1 by Western blot analysis; type: functional, cell-based
mTORC1 (Homo sapiens) = mTORC1 (Homo sapiens) (UniProt P42345+Q8N122+Q9BVC4); assay: Inhibition of mTORC1 in human A549 cells assessed as reduction in p70S6K phosphorylation at 10 uM after 3 to 24 hrs by Western blot analysis; type: cell-based
Sequence of mTORC1 (Homo sapiens) (Q8N122 whole entry, looked up, other chains not shown): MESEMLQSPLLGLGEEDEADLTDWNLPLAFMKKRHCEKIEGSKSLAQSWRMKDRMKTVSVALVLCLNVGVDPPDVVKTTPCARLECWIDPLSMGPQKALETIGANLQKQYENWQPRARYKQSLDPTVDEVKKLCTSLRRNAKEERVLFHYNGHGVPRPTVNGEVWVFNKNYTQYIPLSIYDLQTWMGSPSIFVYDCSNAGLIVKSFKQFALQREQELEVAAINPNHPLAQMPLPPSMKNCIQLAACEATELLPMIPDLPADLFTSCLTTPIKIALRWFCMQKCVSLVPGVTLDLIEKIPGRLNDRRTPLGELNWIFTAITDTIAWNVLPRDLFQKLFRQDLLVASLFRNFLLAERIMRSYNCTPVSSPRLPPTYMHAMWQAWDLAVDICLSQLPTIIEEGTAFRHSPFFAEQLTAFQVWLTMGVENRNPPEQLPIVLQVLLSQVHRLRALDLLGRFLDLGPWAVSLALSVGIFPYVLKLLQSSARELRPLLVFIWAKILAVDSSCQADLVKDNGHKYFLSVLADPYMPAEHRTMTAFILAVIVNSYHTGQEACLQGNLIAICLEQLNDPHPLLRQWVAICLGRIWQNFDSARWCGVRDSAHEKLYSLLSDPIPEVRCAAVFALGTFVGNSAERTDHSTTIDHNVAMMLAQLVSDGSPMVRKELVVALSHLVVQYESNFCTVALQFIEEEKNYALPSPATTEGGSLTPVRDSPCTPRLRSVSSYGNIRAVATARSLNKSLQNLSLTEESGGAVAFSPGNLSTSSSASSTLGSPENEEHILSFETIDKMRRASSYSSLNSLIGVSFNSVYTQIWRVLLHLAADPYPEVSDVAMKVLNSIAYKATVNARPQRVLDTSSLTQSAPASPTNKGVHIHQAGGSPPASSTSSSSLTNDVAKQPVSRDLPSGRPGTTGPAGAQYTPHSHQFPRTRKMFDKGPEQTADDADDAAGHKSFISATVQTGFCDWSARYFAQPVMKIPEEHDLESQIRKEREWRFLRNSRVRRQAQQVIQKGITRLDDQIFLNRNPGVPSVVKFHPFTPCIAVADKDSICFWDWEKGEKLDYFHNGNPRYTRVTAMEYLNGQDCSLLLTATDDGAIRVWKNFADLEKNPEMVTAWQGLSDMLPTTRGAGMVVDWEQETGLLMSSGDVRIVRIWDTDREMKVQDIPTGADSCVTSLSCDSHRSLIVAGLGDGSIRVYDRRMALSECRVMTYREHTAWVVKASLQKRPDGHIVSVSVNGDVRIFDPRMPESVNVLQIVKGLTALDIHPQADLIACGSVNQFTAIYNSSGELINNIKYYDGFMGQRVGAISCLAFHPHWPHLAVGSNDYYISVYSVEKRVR
Sequence of mTORC1 (Homo sapiens) (Q9BVC4 whole entry, looked up, other chains not shown): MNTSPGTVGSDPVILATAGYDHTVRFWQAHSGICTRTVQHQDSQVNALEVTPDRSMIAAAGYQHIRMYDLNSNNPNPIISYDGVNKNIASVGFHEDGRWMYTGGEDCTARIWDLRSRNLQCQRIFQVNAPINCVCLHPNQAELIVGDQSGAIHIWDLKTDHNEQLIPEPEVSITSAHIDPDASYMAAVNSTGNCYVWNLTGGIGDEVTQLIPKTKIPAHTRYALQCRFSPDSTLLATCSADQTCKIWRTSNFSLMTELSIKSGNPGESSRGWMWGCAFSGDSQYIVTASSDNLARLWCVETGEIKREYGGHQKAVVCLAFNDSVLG

Compound | Activity (A549 [1]) | Activity (A549 [2]) | further results
O=Cc1ccc2c(c1)c1ccccc1n2CCCN1CCNCC1 | inactive | inactive | –
CCN(CC)c1ccc2cc(-c3ccc(C)cc3)c(=O)oc2c1 | inactive | inactive | –
CCN(CC)C(=O)c1ccc(-c2oc3ccccc3c(=O)c2O)cc1 | inactive | inactive | –
CCN(CC)c1ccc2ccc(=O)oc2c1 | inactive | inactive | –
O=Cc1ccc2c(c1)c1ccccc1n2CCCCl | inactive | inactive | –
CC1(C)CC(/C=C/c2ccc(N3CCNCC3)cc2)=CC(=C(C#N)C#N)C1 | Active | Active | pIC50 (A549 [3]): 5.15; Activity (A549 [4]): Active; Activity (A549 [5]): Non-Toxic; Activity (A549 [6]): Toxic; Activity (A549 [7]): Active; Activity (A549 [8]): Active; Activity (A549 [9]): Active; inhibition (A549 [10]): Active
C[N+]1=C(/C=C/c2ccc(N3CCNCC3)cc2)C(C)(C)c2ccccc21 | Active | Active | pIC50 (A549 [3]): 4.87
C[N+]1=C(/C=C/c2ccc(N)cc2)C(C)(C)c2ccccc21 | Active | Active | pIC50 (A549 [3]): 5.41
C[N+]1=C(/C=C/c2ccc(N3CCCCC3)cc2)C(C)(C)c2ccccc21.[I-] | Active | Active | pIC50 (A549 [3]): 5.96; Activity (A549 [4]): Active; Activity (A549 [5]): Non-Toxic; Activity (A549 [6]): Non-Toxic; Activity (A549 [7]): Active; Activity (A549 [8]): Active; Activity (A549 [9]): Active; Activity (A549 [11]): Active; Activity (U-87 MG): Dose-dependent effect; Activity (A549 [12]): Active; inhibition (mTORC1 (Homo sapiens)): Active
O=C(O)c1ccc2c(c1)S(=O)(=O)c1ccccc1N2CCCCl | inactive | inactive | –
O=C(O)c1ccc(N2C(=O)c3cccc4cccc(c34)C2=O)cc1 | inactive | inactive | –
CCN(CC)c1ccc2cc(-c3ccc(N)cc3)c(=O)oc2c1 | inactive | inactive | –
O=C1OC(=O)c2ccc(N3CCCC3)c3cccc1c23 | inactive | inactive | –
O=C(O)c1ccc(-c2oc3ccccc3c(=O)c2O)cc1 | inactive | inactive | –
Cc1cc[n+](CCCN2c3ccccc3S(=O)(=O)c3cc(C(=O)O)ccc32)cc1 | inactive | inactive | –
CC1=[N+](C)c2ccccc2C1(C)C | inactive | inactive | –
O=c1[nH]cc(F)c(=O)[nH]1 [FLUOROURACIL] | Active | Active | pIC50 (A549 [3]): 5.15
